The record followed here is patent US10711006B2, “Selective Bruton's tyrosine kinase inhibitor and use thereof” (HANGZHOU HERTZ PHARMACEUTICAL CO., LTD., priority 2016, dated 2020).

The test system of experiment [1] is human mantle cell lymphoma (MINO). Kind of experiment: In-vitro tumor cell proliferation inhibition (CCK-8), MINO. To be noted: 72 h, read-out: Tumor cell proliferation inhibitory activity (IC50, μM) MINO.
Experimental: (§1) The in-vitro antitumor activity assay was carried out on the synthesized compound by using different solid tumors and leukemia cell lines:
(§2) Cell lines: human lung cancer cell (A549), human mantle cell lymphoma (MINO), diffuse giant B-cell lymphoma (OCI-LY10), and human diffuse large B lymphoma (TMD-8).
(§3) Preparation method of the drug: the drug was dissolved in DMSO to make a 10 mM stock solution, and then the stock solution was diluted in a certain ratio to obtain 5 different concentrations (test concentration 100×). In-vitro culture of tumor cells:
(§4) The tumor cells A549, MINO, OCI-LY10, and TMD-8 were seeded in a 96-well plate at 4000 cells/200 μL/well and then incubated overnight at 37° C. in a 5% CO2 cell culture incubator. 2 μL of the compound was added to each well to final concentrations of 50 μM, 10 μM, 2 μM, 0.4 μM, and 0.08 μM and then incubated for 72 hours at 37° C. in a 5% CO2 cell incubator, with DMSO (2%) as a control group. […] Wells loaded with the corresponding amount of cell culture fluid the and CCK-8 solution but no cells were considered as blank controls. The absorbance (OD value) was measured at 450 nm using a microplate reader, and the obtained data was used to calculate IC50.
The test system of experiment [2] is human diffuse large B lymphoma (TMD-8). Kind of experiment: In-vitro tumor cell proliferation inhibition (CCK-8), TMD-8. To be noted: TMD8, 72 h, read-out: Tumor cell proliferation inhibitory activity (IC50, nM) TMD-8.
Another experiment concerns the target BTK Kinase (Homo sapiens (Human), UniProt Q06187). Kind of experiment: In-vitro Btk kinase inhibitory activity assay. Format: biochemical. The method, then:
In-Vitro Btk Kinase Inhibitory Activity Assay for Compounds of the Present Invention:
10 μL of the 50× drug stock solution was added to a 96-well plate and then 90 μL of a 1× Kinase Buffer was added and the 96-well plate was shaken for 10 minutes on a shaker. From each well of the 96-well plate, 5 μL of the drug solution was taken and then transferred to a 384-well plate which was provided with 2 duplicate wells.
Preparation of a 2.5× Kinase Buffer: an enzyme was added to the 1× kinase base buffer.
Prepare a 2.5× oligopeptide solution: FAM-labeled oligopeptide and ATP were added to the 1× kinase base buffer.
10 μL of the 2.5× Kinase Buffer was added to the 384-well plate loaded with 5 μL of the drug solution and incubation was then carried out for 10 minutes at room temperature. 10 μL of the 2.5× oligopeptide solution was added to the 384-well plate and incubation was then carried out for 1 hour at 28° C. The reaction was stopped by adding 25 μL of a stop buffer. The readings were recorded and the inhibition rate of the compound on the enzyme was calculated. The IC50 of BTK kinase was calculated by fitting.

The next experiment concerns the target hERG potassium channel (Homo sapiens (Human), UniProt Q12809). Kind of experiment: hERG potassium channel inhibitory activity, manual patch clamp in CHO cells. The conditions noted are these: CHO cells stably expressing hERG, whole-cell patch clamp. The format is cell-based. The method, then: The cells used in this experiment were CHO cell lines transfected with HergCdna and stably expressing Herg channels (supplied by Sophion Bioscience, Denmark). The cells were cultured in a medium containing the following components (all from Invitrogen): Ham's F12 medium, 10% (v/v) inactivated fetal bovine serum, 100 μg/ml hygromycin B, 100 μg/ml Geneticin. […] 24 to 48 hours before an electrophysiological experiment, CHO Herg cells were transferred to circular slides placed in the culture dishes and grow with the same culture liquid under the same culture conditions as above. The density of CHO Herg cells on each circular slide was required to reach such a value that most cells were independent and stand alone.
2. Treatment and Dilution of a Compound
Before the test, the compound was first diluted with DMSO at gradient to make stock solutions with concentrations of 10, 3, 1, 0.3 and 0.1 Mm and the stock solutions were then diluted with extracellular fluid to a final Mm test concentration. Except that the DMSO concentration in the 30 Mm compound test solution was 0.3%, the final concentration of DMSO in each of the compound solutions with other concentrations was 0.1%. The test concentration of a positive control Cisapridewas 0.1 Mm. All compound solutions were conventionally sonicated and shaken for 5 to 10 minutes to ensure complete dissolution of the compound.
3. Electrophysiological Recording System and Data Analysis
This experiment uses a manual patch clamp system (HEKA EPC-10 signal amplifier and digital conversion system, purchased from HEKA Electronics, Germany) for the recording of whole cell currents. The circular slides with CHO Herg cells growing on the surfaces were placed in an electrophysiological recording slot under an inverted microscope. The extracellular fluid was used for continuous perfusion in the recording slot (approximately lml per minute). The experimental procedure uses a conventional whole-cell patch clamp current recording technique. Unless otherwise stated, the experiment was carried out at regular room temperature ([…]). The cells were clamped at a voltage of −80 Mv. The cell clamp voltage was depolarized to +20 Mv to activate the Herg potassium channel, and 5 seconds later, it was clamped to −50 Mv to eliminate inactivation and generate tail current. The peak of the tail current was used as the value of the Herg current. After the hERG potassium current recorded in the above step was stabilized under the continuous extracellular fluid perfusion in the recording slot, the drug to be tested can be superimposed to the perfusion until the inhibitory effect of the drug on the hERG current reaches a steady state. Generally, the criterion for determine whether or not the stable state was reached was that the recent three consecutive current recording lines were coincident. After the steady state was reached, extracellular fluid perfusion was carried out for flushing until the hERG current returns to the magnitude before the drug was added. One cell may be used for testing one or more drugs, or multiple concentrations of the same drug, and flushing with extracellular fluid was carried out between tests of different drugs. Cisapride (purchased from Sigma) was used in the experiment as a positive control to ensure that the cells used were of normal quality. The test data was analyzed by data analysis software provided by HEKA Patchmaster, Microsoft Excel and Graphpad Prism.
On the technique in general: The hERG channel carries a current that helps repolarise heart muscle cells.

For experiment [3], the system named is human lung cancer cell (A549). As to the kind of experiment: In-vitro tumor cell proliferation inhibition (CCK-8), A549. The conditions noted are these: A549, 72 h, read-out: Tumor cell proliferation inhibitory activity (IC50, μM) A549.
Experimental: as §1, §2, §3, §4
Experiment [4] concerns diffuse giant B-cell lymphoma (OCI-LY10). Kind of experiment: In-vitro tumor cell proliferation inhibition (CCK-8), OCI-LY10. To be noted: Homo sapiens, OCI-Ly10, 72 h, read-out: Tumor cell proliferation inhibitory activity (IC50, nM) OCI-LY10.

SMILES strings stand for the structures.

Sequence of hERG potassium channel (Q12809 whole entry): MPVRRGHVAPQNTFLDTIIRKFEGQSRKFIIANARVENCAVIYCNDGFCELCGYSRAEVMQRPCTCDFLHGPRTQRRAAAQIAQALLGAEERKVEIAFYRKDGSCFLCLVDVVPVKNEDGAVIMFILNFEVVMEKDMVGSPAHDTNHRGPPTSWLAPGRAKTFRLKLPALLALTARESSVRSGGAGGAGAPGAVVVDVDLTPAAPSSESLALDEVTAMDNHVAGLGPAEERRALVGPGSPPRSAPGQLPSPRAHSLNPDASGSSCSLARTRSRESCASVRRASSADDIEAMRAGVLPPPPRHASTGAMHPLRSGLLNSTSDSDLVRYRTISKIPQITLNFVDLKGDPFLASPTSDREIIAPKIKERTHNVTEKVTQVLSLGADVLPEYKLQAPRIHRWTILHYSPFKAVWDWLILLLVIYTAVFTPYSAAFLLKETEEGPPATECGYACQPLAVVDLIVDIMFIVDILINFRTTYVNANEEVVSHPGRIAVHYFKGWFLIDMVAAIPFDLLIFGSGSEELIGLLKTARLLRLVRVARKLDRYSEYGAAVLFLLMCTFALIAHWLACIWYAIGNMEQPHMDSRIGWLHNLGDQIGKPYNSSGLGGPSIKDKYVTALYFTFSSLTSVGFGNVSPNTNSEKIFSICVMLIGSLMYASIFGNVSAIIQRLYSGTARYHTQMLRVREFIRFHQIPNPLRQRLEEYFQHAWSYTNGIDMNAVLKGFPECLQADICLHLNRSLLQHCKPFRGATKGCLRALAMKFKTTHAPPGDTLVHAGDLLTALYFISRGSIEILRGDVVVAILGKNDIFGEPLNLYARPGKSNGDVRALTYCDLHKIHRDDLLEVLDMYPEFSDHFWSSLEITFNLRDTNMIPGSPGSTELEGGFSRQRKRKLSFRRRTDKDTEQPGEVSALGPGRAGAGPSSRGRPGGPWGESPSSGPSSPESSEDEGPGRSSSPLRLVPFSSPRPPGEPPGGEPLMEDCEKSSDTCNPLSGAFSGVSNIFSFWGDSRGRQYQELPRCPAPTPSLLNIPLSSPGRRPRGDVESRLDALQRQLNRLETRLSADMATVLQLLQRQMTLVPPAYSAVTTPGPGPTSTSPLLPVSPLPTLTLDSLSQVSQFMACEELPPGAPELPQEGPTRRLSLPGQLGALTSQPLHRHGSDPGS
Sequence of BTK Kinase (Q06187 whole entry): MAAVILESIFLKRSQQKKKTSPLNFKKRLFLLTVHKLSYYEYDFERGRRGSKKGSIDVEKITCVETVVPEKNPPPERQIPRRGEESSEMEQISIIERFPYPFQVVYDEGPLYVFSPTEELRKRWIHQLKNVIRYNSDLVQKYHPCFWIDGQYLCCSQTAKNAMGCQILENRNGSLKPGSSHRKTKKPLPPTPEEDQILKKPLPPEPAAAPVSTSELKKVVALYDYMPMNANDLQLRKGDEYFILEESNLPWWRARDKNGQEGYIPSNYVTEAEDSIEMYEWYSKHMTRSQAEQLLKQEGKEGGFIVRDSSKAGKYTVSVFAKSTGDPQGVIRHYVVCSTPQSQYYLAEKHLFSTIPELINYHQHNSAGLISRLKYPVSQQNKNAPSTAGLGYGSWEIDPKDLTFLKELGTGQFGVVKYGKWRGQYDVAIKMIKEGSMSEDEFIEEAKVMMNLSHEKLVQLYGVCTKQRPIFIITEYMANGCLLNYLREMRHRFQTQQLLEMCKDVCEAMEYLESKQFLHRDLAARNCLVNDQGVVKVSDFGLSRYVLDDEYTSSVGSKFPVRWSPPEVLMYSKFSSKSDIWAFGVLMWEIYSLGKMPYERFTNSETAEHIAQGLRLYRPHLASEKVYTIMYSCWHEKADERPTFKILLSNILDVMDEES

As for `CC/C=C/C(=O)N1CCC[C@@H](n2nc(-c3ccc(Oc4ccccc4)nc3)c3c(N)ncnc32)C1` [Compound 20a, (R)-1-(3-(4-amino-3-(6-phenoxypyridin-3-yl)-1H-pyrazolo[3,4-d]pyrimidin-1-yl)piperidin-1-yl) pent-2-en-1-one], the IC50 in experiment [1] came out at 8.92 µM; in experiment [2], 15.2 nM; against BTK Kinase, 0.0186 µM; against hERG potassium channel it was 14.8 µM; in experiment [3], 7.7 µM; in experiment [4], 12.5 nM.

Consider `C=CC(=O)N1CCC[C@@H](n2nc(-c3ccc(Oc4ccc(C)cc4)nc3)c3c(N)ncnc32)C1` [Compound 15i], for which the IC50 in experiment [1] came out at 8.35 µM; in experiment [2], 4.99 nM; against BTK Kinase, 0.0065 µM; at hERG potassium channel, 13.5 µM; in experiment [3] it was 8.21 µM; in experiment [4], 3.19 nM.

As to `C=CC(=O)N1CCC[C@@H](n2nc(-c3ccc(Oc4cccc(F)c4F)nc3F)c3c(N)ncnc32)C1` [Compound 17i, (R)-1-(3-(4-amino-3-(6-(2,3-difluorophenoxy)-2-fluoropyridin-3-yl)-1H-pyrazolo[3,4-d]pyrimidin-1-yl)piperidin-1-yl)prop-2-en-1-one], the IC50 was found to be 7.65 µM in experiment [1]; 3.8 nM in experiment [2]; 0.0012 µM against BTK Kinase; 1.02 µM in experiment [3]; 2.04 nM in experiment [4].

Consider `C=CC(=O)N1CCC[C@@H](n2nc(-c3ccc(Oc4ccc(F)cc4)nc3)c3c(N)ncnc32)C1` [Compound 15b, (R)-1-(3-(4-amino-3-(6-(4-fluorophenoxypyridine)-3-yl)-1H-pyrazolo[3,4-d]pyrimidin-1-yl)piperidin-1-yl)prop-2-en-1-one], for which the IC50 in experiment [1] was 8.19 µM; in experiment [2], 2.37 nM; at BTK Kinase, 0.0095 µM; on hERG potassium channel, 11.6 µM; in experiment [3], 2.88 µM; in experiment [4], 3.58 nM.

Consider `C=CC(=O)N1CCC[C@@H](n2nc(-c3ccc(Oc4ccccc4)cn3)c3c(N)ncnc32)C1` [Compound 19, (R)-1-(3-(4-amino-3-(5-phenoxypyridin-2-yl)-1H-pyrazolo[3,4-d]pyrimidin-1-yl)piperidin-1-yl)prop-2-en-1-one], for which the IC50 in experiment [1] amounted to 7.12 µM; in experiment [2], 10.2 nM; against BTK Kinase, 0.0053 µM; against hERG potassium channel it was 10.6 µM; in experiment [3] it was 4.52 µM; in experiment [4], 13.6 nM.

For the molecule `C=CC(=O)N1CC[C@@H](n2nc(-c3ccc(Oc4ccccc4)nc3)c3c(N)ncnc32)C1` [Compound 23a, (R)-1-(3-(4-amino-3-(6-phenoxypyridin-3-yl)-1H-pyrazolo[3,4-d]pyrimidin-1-yl)pyrrolidin-1-yl)prop-2-en-1-one], the IC50 in experiment [1] turned out to be 9.19 µM; in experiment [2], 28.3 nM; on BTK Kinase it was 0.0044 µM; at hERG potassium channel, 18.2 µM; in experiment [3], 2.83 µM; in experiment [4], 6.91 nM.

Regarding `C=CC(=O)N1CCC[C@@H](n2nc(-c3cnc(Oc4ccccc4)nc3)c3c(N)ncnc32)C1` [Compound 18, (R)-1-(3-(4-amino-3-(2-phenoxypyrimidin-5-yl)-1H-pyrazolo[3,4-d]pyrimidin-1-yl)piperidin-1-yl)prop-2-en-1-one], the IC50 came out at 20.3 µM in experiment [1]; 8.14 nM in experiment [2]; 0.0103 µM against BTK Kinase; 19.5 µM in experiment [3]; 32.1 nM in experiment [4].

With `CC#CC(=O)N1CC[C@@H](n2nc(-c3ccc(Oc4ccccc4)nc3)c3c(N)ncnc32)C1` [Compound 25a, (R)-1-(3-(4-amino-3-(6-phenoxypyridin-3-yl)-1H-pyrazolo[3,4-d]pyrimidin-1-yl)pyrrolidin-1-yl)but-2-yn-1-one], the IC50 in experiment [1] is 6.5 µM; in experiment [2], 5.18 nM; on BTK Kinase, 0.0251 µM; against hERG potassium channel, 13.6 µM; in experiment [3], 5.3 µM; in experiment [4], 5.13 nM.

As to `C=CC(=O)N1CCC[C@@H](n2nc(-c3ccc(Oc4cccc(F)c4)nc3)c3c(N)ncnc32)C1` [Compound 15c, (R)-1-(3-(4-amino-3-(6-(3-fluorophenoxypyridine)-3-yl)-1H-pyrazolo[3,4-d]pyrimidin-1-yl)piperidin-1-yl)prop-2-en-1-one], the IC50 in experiment [1] was found to be 6.23 µM; in experiment [2], 4.12 nM; on BTK Kinase it was 0.0086 µM; in experiment [3] it was 2.06 µM; in experiment [4], 2.23 nM.
